Data reported in patent publication US20200129528A1, “METHODS FOR TREATING BLOOD PRESSURE CONDITIONS USING AMINOSTEROL COMPOSITIONS” (Enterin, Inc., priority 2018, published 2020).
Values joined by “and” are separate entries in the source; they are usually repeats but may differ in a detail not shown here. Equal values may be shown once. “Also recorded” adds a separate entry of the source.

Assays:
Format in all cases: in vivo, human
[1] = test system: patients with PD and constipation; assay: Phase 2 trial Stage 1: adverse events; conditions: Stage 1, 10 dosed
Excerpt: Tolerability limits included diarrhea or vomiting.

[2] = test system: patients with PD and constipation; assay: Phase 2 trial Stage 2: bowel function with daily oral dosing escalated to a fixed dose
Experimental: Following successful screening, all subjects underwent a 14-day run-in period where the degree of constipation was assessed through a validated daily log (Zinsmeister et al. 2013) establishing baseline CSBMs/week. Subjects with an average of <3 CSBMs/week proceeded to dosing.
In Stage 2, 34 patients were evaluated. […] This dose was then maintained (“fixed dose”) fir an additional 3-5 days.
The primary efficacy outcome variable was whether or not a subject was a “success” or “failure”. This is an endpoint based on subject diary entries for the “fixed dose” period prior to the endpoint assessment defined as average complete stool frequency increase by 1 or more over baseline, or 3 or more complete spontaneous stools/week. The subject was deemed a “success” if s/he met one or more of the criteria listed above, otherwise the subject was deemed a “failure”. The primary analysis was based on all subjects with a baseline assessment and an assessment at the end of the “fixed-dose” period and was a comparison of the proportion of successes with 0.10 (the null hypothesis corresponding to no treatment effect).
The proportion of subjects for whom the drug was a success was estimated with a binomial point estimate and corresponding 95% confidence interval. A secondary analysis compared the proportions of subjects who are deemed a success at the end of the randomized fixed-dose period between those randomized to the squalamine (ENT-01) arm and those randomized to the placebo arm. A Fisher's exact test was used to compare the proportions of subjects who were deemed a success at the end of randomization period between the two randomized arms

[3] = test system: patients with PD and constipation; assay: Systolic blood pressure in Stage 2 of the clinical study; conditions: for change of blood pressure in subjects with high blood pressure / change of blood pressure in subjects with low blood pressure: Stage 2, post medication / fixed dose versus baseline
Excerpt: Subjects in Stage 2 of the clinical study described in Example 1 had their systolic blood pressure measured at various points during the clinical study. […]

[4] = test system: patients with PD and constipation; assay: Circadian rhythm of wrist skin temperature; conditions: for circadian rhythm of wrist skin temperature (IS, RA, CFI, IV): 12 evaluable patients, fixed dose versus baseline
Experimental: (6) I-Button Temperature Assessment. The 1-Button is a small, rugged self-sufficient system that measures temperature and records the results in a protected memory section. The Thermochron I-Button DS1921H (Maxim Integrated, Dallas, Tex.) was used for skin temperature measurement. I-Buttons were programmed to sample every 10 mins., and attached to a double-sided cotton sport wrist band using Velcro, with the sensor face of the I-Button placed over the inside of the wrist, on the radial artery of the dominant hand. Subjects removed and replaced the data logger when necessary (i.e., to have a bath or shower). The value of skin temperature assessment in sleep research is that the endogenous skin warming resulting from increased skin blood flow is functionally linked to sleep propensity. From the collected data, the mesor, amplitude, acrophase (time of peak temperature), Rayleight test (an index of interdaily stability), mean waveforms are calculated.);
Assessments were made at baseline and at the end of the fixed dose and washout periods. Circadian system status was evaluated by continuously monitoring wrist skin temperature (Thermochron iButton DS1921H; Maxim, Dallas) following published procedures (Sarabia et al. 2008).
Circadian rhythm of skin temperature was evaluable in 12 patients (i.e., those who had recordings that extended from baseline through washout). Circadian system functionality was evaluated by continuously monitoring wrist skin temperature using a temperature sensor (Thermochron iButton DS1921H; Maxim, Dallas, Tex.) (Sarabia et al. 2008). […]
Briefly, this analysis includes the following parameters: (i) the inter-daily stability (the constancy of 24-hour rhythmic pattern over days, IS); (ii) intra-daily variability (rhythm fragmentation, IV); (iii) average of 10-minute intervals for the 10 hours with the minimum temperature (L10); (iv) average of 10-minute intervals for the 5 hours with the maximum temperature ([…]) and the relative amplitude (RA), which was determined by the difference between M5 and L10, divided by the sum of both. […]

[5] = test system: patients with PD and constipation; assay: Systolic blood pressure in Stage 1 (single dose); conditions: lying position
Excerpt: Normalization refers to lowering high blood pressure and raising low blood pressure into normal ranges. The numbers shown in the graph represent baseline BP then highest treatment BP, both in the lying position, pre-medication. The result is significant despite the small sample size (p=0.01).

[6] = Stage 2, individual subjects, one line per subject

SMILES: CC(C)[C@@H](CC[C@@H](C)[C@H]1CC[C@H]2[C@@H]3[C@H](O)C[C@H]4C[C@@H](NCCCNCCCCN)CC[C@]4(C)[C@H]3CC[C@]12C)OS(=O)(=O)O (single isomer, unassigned) [ENT-01, squalamine]
- Abdominal pain, mild [1]: 2(20) n, %
- Abdominal pain, moderate [1]: 3(30) n, %
- Diarrhea, mild [1]: 1(10) n, %
- Diarrhea, moderate [1]: 3(30) n, %
- Flatulence, mild [1]: 2(20) n, %
- Headache, mild [1]: 1(10) n, %
- Vomiting, mild [1]: 1(10) n, %
- Blood in urine, mild ([1]; unrelated to ENT-01): 1(10) n, %
- Loss of appetite, mild ([1]; unrelated to ENT-01): 1(10) n, %
- decrease of rescue medication use, baseline to fixed dose ([2]; Stage 2, 1.8/week to 0.3): 83%
- improvement of SBM, baseline to fixed dose ([2]; Stage 2, 2.6 to 4.5): 73%
- Ease of passage (Ease of evacuation scale 1-7) ([2]; Stage 2, at fixed dose, mean (SD), baseline 3.2, listed as aminosterol): 3.7
- BP at FD-V4 pre dose [3, 6]: 122 and 147 and 144 and 154 and 115 and 110 (2×) and 138 and 130 and 121 and 113
- BP at V4 + 2 hrs post dose [3, 6]: 113 and 163 and 138 and 105 and 11 and 132 (2×) and 126 and 131 and 115
- final BP- v3, mean ([3]; Stage 2, mean of series, initial mean 133.4219, p=0.011638): 126.3
- change of blood pressure in subjects with high blood pressure [3]: decreased blood pressure
- change of blood pressure in subjects with low blood pressure [3]: increased blood pressure
- change of blood pressure in subjects with high blood pressure ([3]; listed as aminosterol): lower blood pressure
- change of blood pressure in subjects with low blood pressure ([3]; listed as aminosterol): higher blood pressure
- circadian rhythm of wrist skin temperature (IS, RA, CFI, IV) [4]: significant positive impact; also recorded: improved all markers of healthy circadian function
- circadian rhythm of wrist skin temperature (IS, RA, CFI, IV) ([4]; listed as Aminosterol): improved all markers of healthy circadian function
- circadian rhythm parameters during wash-out ([4]; wash-out period (IS, CFI)): persisted for several of these circadian parameters
- effect on systolic BP [5]: normalization of systolic BP
